Test results as given in the supplement of paper PMC10883282.
± gives the standard deviation of the averaged measurements.

Tested on: RD-ES
Assay: relative viability vs DMSO control (72 h) (fraction); higher = more viable cells
Outline: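 Sarcoma cell lines were plated in 384 wells to reach 80–90% confluence, treated after 24 h with 2.5 µl of serially diluted compound and held 72 h at 37 °C, 5% CO2. Relative viability was taken as percent growth from ATPLite readings, averaged over up to triplicate wells. The values were rescaled so that 1 marks full and 0 marks none.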

SMILES	relative viability (0.00017 µM)	relative viability (0.00051 µM)	relative viability (0.00152 µM)	relative viability (0.00457 µM)	relative viability (0.01372 µM)	relative viability (0.04115 µM)	relative viability (0.1235 µM)	relative viability (0.3704 µM)	relative viability (1.111 µM)	relative viability (3.333 µM)	relative viability (10 µM)	relative viability (2 pM)	relative viability (5 pM)	relative viability (15 pM)	relative viability (50 pM)	relative viability (0.00014 µM)	relative viability (0.00041 µM)	relative viability (0.0012 µM)	relative viability (0.0037 µM)	relative viability (0.011 µM)	relative viability (200 fM)	relative viability (600 fM)
CC1(C)CNc2cc(NC(=O)c3cccnc3NCc3ccncc3)ccc21 [Motesanib]	0.969 ± 0.051	0.962 ± 0.048	0.957 ± 0.05	1.01 ± 0.038	0.964 ± 0.053	0.994 ± 0.033	0.989 ± 0.035	0.991 ± 0.04	0.989 ± 0.038	0.974 ± 0.062	0.846 ± 0.015	–	–	–	–	–	–	–	–	–	–	–
C[C@@H](c1ccc2nccn2c1)n1nnc2ncc(-c3cnn(C)c3)nc21 [Volitinib]	0.975 ± 0.017	1.01 ± 0.019	0.98 ± 0.043	0.998 ± 0.022	1 ± 0.018	1 ± 0.013	1.02 ± 0.017	1.03 ± 0.025	0.989 ± 0.062	0.995 ± 0.064	0.972 ± 0.081	–	–	–	–	–	–	–	–	–	–	–
Cc1ccc(NC(=O)c2ccc(CN3CCN(C)CC3)cc2)cc1Nc1nc(-c2cccnc2)cs1 [Masitinib]	0.959 ± 0.018	0.957 ± 0.034	0.9656 ± 0.0031	0.965 ± 0.032	0.948 ± 0.041	0.985 ± 0.011	0.912 ± 0.047	0.86 ± 0.05	0.726 ± 0.043	0.519 ± 0.027	0.183 ± 0.0068	–	–	–	–	–	–	–	–	–	–	–
C=CC(=O)Nc1cccc(Oc2nc(Nc3ccc(N4CCN(C)CC4)cc3)nc3ccsc23)c1 [Olmutinib]	0.914 ± 0.052	0.949 ± 0.025	0.953 ± 0.022	0.953 ± 0.0047	0.9443 ± 0.0083	0.978 ± 0.015	0.979 ± 0.02	0.977 ± 0.012	0.9749 ± 0.0091	0.931 ± 0.068	0.774 ± 0.074	–	–	–	–	–	–	–	–	–	–	–
CC(C)(C)c1cc(NC(=O)Nc2ccc(-c3cn4c(n3)sc3cc(OCCN5CCOCC5)ccc34)cc2)no1 [Quizartinib]	0.968 ± 0.018	0.983 ± 0.028	0.993 ± 0.018	0.9932 ± 0.0065	0.993 ± 0.011	0.995 ± 0.005	0.986 ± 0.02	1 ± 0.025	0.991 ± 0.019	0.951 ± 0.043	0.869 ± 0.035	–	–	–	–	–	–	–	–	–	–	–
CC(C)NC(=O)C1CCC(n2c(NC(=O)c3ccc(F)cc3)nc3ccc(CN4CCC(C(C)(C)O)CC4)cc32)CC1 (centres undefined) [Belizatinib]	1.01 ± 0.025	1.02 ± 0.021	0.997 ± 0.021	1.02 ± 0.013	1.03 ± 0.021	0.995 ± 0.021	0.907 ± 0.01	0.648 ± 0.02	0.455 ± 0.014	0.395 ± 0.016	0.261 ± 0.009	–	–	–	–	–	–	–	–	–	–	–
Cc1ccc(F)c(NC(=O)Nc2ccc(-c3cccc4[nH]nc(N)c34)cc2)c1 [Linifanib]	1 ± 0.043	0.998 ± 0.012	0.994 ± 0.011	0.978 ± 0.023	1 ± 0.028	1.01 ± 0.048	1 ± 0.014	0.982 ± 0.038	1.01 ± 0.018	0.975 ± 0.022	0.983 ± 0.043	–	–	–	–	–	–	–	–	–	–	–
Cc1nc(NC(=O)N2CCC[C@H]2C(N)=O)sc1-c1ccnc(C(C)(C)C(F)(F)F)c1 [Alpelisib]	0.955 ± 0.069	0.949 ± 0.05	0.95 ± 0.05	0.944 ± 0.046	0.894 ± 0.017	0.852 ± 0.028	0.733 ± 0.025	0.641 ± 0.029	0.559 ± 0.0059	0.485 ± 0.025	0.375 ± 0.009	–	–	–	–	–	–	–	–	–	–	–
C[C@]1(O)C[C@@H](c2nc(-c3ccc4ccc(-c5ccccc5)nc4c3)c3c(N)nccn32)C1 [Linsitinib]	0.986 ± 0.02	0.992 ± 0.034	0.982 ± 0.017	0.967 ± 0.015	0.928 ± 0.014	0.8432 ± 0.005	0.661 ± 0.017	0.451 ± 0.028	0.382 ± 0.016	0.354 ± 0.018	0.309 ± 0.0052	–	–	–	–	–	–	–	–	–	–	–
C=CC(=O)N1CCC([C@@H]2CCNc3c(C(N)=O)c(-c4ccc(Oc5ccccc5)cc4)nn32)CC1 [Zanubrutinib]	0.953 ± 0.033	0.956 ± 0.013	0.978 ± 0.025	0.985 ± 0.025	0.978 ± 0.023	0.943 ± 0.044	0.921 ± 0.027	0.942 ± 0.046	0.887 ± 0.053	0.888 ± 0.07	0.904 ± 0.049	–	–	–	–	–	–	–	–	–	–	–
CCc1cc2c(cc1N1CCC(N3CCOCC3)CC1)C(C)(C)c1[nH]c3cc(C#N)ccc3c1C2=O [Alectinib]	0.9941 ± 0.0039	0.997 ± 0.011	0.993 ± 0.016	0.997 ± 0.025	0.988 ± 0.026	1 ± 0.029	1.03 ± 0.039	0.988 ± 0.036	1.04 ± 0.029	1.04 ± 0.014	1.03 ± 0.034	–	–	–	–	–	–	–	–	–	–	–
C[C@@H]1CCN(C(=O)CC#N)C[C@@H]1N(C)c1ncnc2[nH]ccc12 [Tofacitinib]	0.942 ± 0.038	0.962 ± 0.035	0.952 ± 0.053	0.966 ± 0.045	0.961 ± 0.024	0.962 ± 0.06	0.949 ± 0.047	0.965 ± 0.034	0.955 ± 0.045	0.988 ± 0.051	1.02 ± 0.044	–	–	–	–	–	–	–	–	–	–	–
CC[C@H](Nc1ncnc2[nH]cnc12)c1nc2cccc(F)c2c(=O)n1-c1ccccc1 [Idelalisib]	0.9939 ± 0.0089	0.99 ± 0.033	0.977 ± 0.04	0.984 ± 0.037	0.977 ± 0.033	0.98 ± 0.019	0.982 ± 0.028	0.97 ± 0.027	0.909 ± 0.026	0.88 ± 0.034	0.744 ± 0.019	–	–	–	–	–	–	–	–	–	–	–
COc1cc2nccc(Oc3ccc(NC(=O)Nc4cc(C)on4)c(Cl)c3)c2cc1OC [Tivozanib]	0.987 ± 0.038	1.01 ± 0.026	0.9944 ± 0.0095	1.02 ± 0.038	1.02 ± 0.022	1.03 ± 0.02	1 ± 0.024	1.02 ± 0.018	0.981 ± 0.031	0.912 ± 0.036	0.768 ± 0.02	–	–	–	–	–	–	–	–	–	–	–
COc1cc2c(cc1O)CCN[C@]21CS[C@@H]2c3c(OC(C)=O)c(C)c4c(c3[C@H](COC1=O)N1[C@@H]2[C@H]2c3c(cc(C)c(OC)c3O)C[C@@H]([C@@H]1O)N2C)OCO4 [Trabectedin]	–	–	–	–	–	–	–	–	–	–	–	0.979 ± 0.032	0.954 ± 0.052	0.833 ± 0.06	0.581 ± 0.008	0.0757 ± 0.0065	0.0099 ± 0.002	0.00377 ± 0.00023	0.0027 ± 0.00085	0.00663 ± 0.00032	0.9532 ± 0.0081	0.985 ± 0.056
N#CC[C@H](C1CCCC1)n1cc(-c2ncnc3[nH]ccc23)cn1 [Ruxolitinib]	0.938 ± 0.025	0.967 ± 0.014	0.95 ± 0.031	0.949 ± 0.024	0.932 ± 0.025	0.939 ± 0.05	0.933 ± 0.057	0.946 ± 0.029	0.939 ± 0.028	0.941 ± 0.028	0.954 ± 0.065	–	–	–	–	–	–	–	–	–	–	–
Cc1cc(C)c(/C=C2\C(=O)Nc3ccccc32)[nH]1 [Semaxanib]	0.962 ± 0.022	0.973 ± 0.034	0.961 ± 0.052	0.994 ± 0.02	0.969 ± 0.053	0.976 ± 0.013	0.93 ± 0.024	0.965 ± 0.026	0.915 ± 0.064	0.871 ± 0.033	0.792 ± 0.012	–	–	–	–	–	–	–	–	–	–	–
O=C(Cc1ccc(-c2ccc(OCCN3CCOCC3)cc2)cn1)NCc1ccccc1 [KX2-391]	0.984 ± 0.025	1.002 ± 0.0063	1.01 ± 0.029	0.996 ± 0.017	0.973 ± 0.022	0.674 ± 0.021	0.0817 ± 0.0038	0.0547 ± 0.0048	0.0489 ± 0.0023	0.0417 ± 0.0023	0.0395 ± 0.0014	–	–	–	–	–	–	–	–	–	–	–
COc1cc2c(Oc3ccc4[nH]c(C)cc4c3F)ncnc2cc1OCCCN1CCCC1 [Cediranib]	0.96 ± 0.026	0.985 ± 0.038	0.95 ± 0.023	0.958 ± 0.018	0.992 ± 0.023	0.961 ± 0.017	0.962 ± 0.01	0.9773 ± 0.0095	0.887 ± 0.013	0.971 ± 0.025	0.943 ± 0.022	–	–	–	–	–	–	–	–	–	–	–
